What was measured:
Experiment in all cases: B2 Post-Emergence Efficacy - Test 2
Format in all cases: in vivo
[1] = test system: Abutilon theophrasti (ABUTH); details: 15 days after application, 0-100 scale
Outline: (§1)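 Post-emergence spray, 12-day-old potted plants; IF50 formulation in water + Genapol X080 0.2% v/v. Glasshouse 24/18 or 20/16 °C, 16 h light, 65% RH, watered twice daily. Rating at 15 DAA, 0 = no damage, 100 = total kill.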

[2] = test system: Amaranthus retroflexus (AMARE); details: 15 days after application, 0-100 scale
Outline: as §1

Avena fatua (AVEFA) = details: 15 days after application, 0-100 scale
Outline: as §1

Beta vulgaris (BEAVA) = details: 15 days after application, 0-100 scale
Outline: as §1

[3] = test system: Brachiaria plantaginea (BRAPL); details: 15 days after application, 0=no damage, 100=total kill
Outline: as §1

Brassica napus (BRSNN) = details: 15 days after application, 0-100 scale
Outline: as §1

Bromus tectorum (BROTE) = details: 15 days after application, 0-100 scale
Outline: as §1

[4] = test system: Digitaria sanguinalis (DIGSA); details: 15 days after application, 0=no damage, 100=total kill
Outline: as §1

Glycine max (GLXMA) = details: 15 days after application; for Herbicidal activity GLXMA: 0-100 scale; for Herbicidal activity on a 0-100 scale, GLXMA: 0=no damage, 100=total kill
Outline: as §1

[5] = test system: Ipomoea hederacea (IPOHE); details: 15 days after application, 0-100 scale
Outline: as §1

Kochia scoparia (KSHSC) = details: 15 days after application, 0-100 scale
Outline: as §1

Lolium perenne (LOLPE) = details: 15 days after application, 0-100 scale
Outline: as §1

Poa annua (POAAN) = details: 15 days after application, 0-100 scale
Outline: as §1

Sida spinosa (SIDSP) = details: 15 days after application, 0-100 scale
Outline: as §1

Sinapis arvensis (SINAR) = details: 15 days after application, 0-100 scale
Outline: as §1

Sorghum bicolour (SORVU) = details: 15 days after application, 0=no damage, 100=total kill
Outline: as §1

[6] = test system: Triticum aestivum (TRZAW); details: 15 days after application, 0-100 scale
Outline: as §1

[7] = test system: Xanthium strumarium (XANST); details: 15 days after application, 0-100 scale
Outline: as §1

Cc1nn(C)c(=O)c(-c2c(F)ccc(Cl)c2CCc2ccc(C#N)cc2)c1O [Compound 1.024, 4-[3-chloro-6-fluoro-2-[2-[4-(cyano)phenyl]ethyl]phenyl]-5-hydroxy-2,6-dimethyl-pyridazin-3-one]
80: Herbicidal activity AMARE ([2]; 15 g/Ha) | Herbicidal activity AVEFA (Avena fatua (AVEFA); 500 g/Ha) | Herbicidal activity BEAVA (Beta vulgaris (BEAVA); 60 g/Ha) | Herbicidal activity BEAVA (Beta vulgaris (BEAVA); 125 g/Ha) | Herbicidal activity BEAVA (Beta vulgaris (BEAVA); 250 g/Ha) | Herbicidal activity BRSNN (Brassica napus (BRSNN); 15 g/Ha) | Herbicidal activity on a 0-100 scale, DIGSA ([4]; 125 g/Ha) | Herbicidal activity GLXMA (Glycine max (GLXMA); 30 g/Ha) | Herbicidal activity on a 0-100 scale, GLXMA (Glycine max (GLXMA); 30 g/Ha) | Herbicidal activity POAAN (Poa annua (POAAN); 125 g/Ha) | Herbicidal activity POAAN (Poa annua (POAAN); 250 g/Ha) | Herbicidal activity SIDSP (Sida spinosa (SIDSP); 15 g/Ha) | Herbicidal activity SINAR (Sinapis arvensis (SINAR); 15 g/Ha) | Herbicidal activity SINAR (Sinapis arvensis (SINAR); 30 g/Ha) | Herbicidal activity SINAR (Sinapis arvensis (SINAR); 60 g/Ha) | Herbicidal activity on a 0-100 scale, SORVU (Sorghum bicolour (SORVU); 125 g/Ha) | Herbicidal activity XANST ([7]; 60 g/Ha) | Herbicidal activity XANST ([7]; 125 g/Ha)
70: Herbicidal activity AVEFA (Avena fatua (AVEFA); 250 g/Ha) | Herbicidal activity BEAVA (Beta vulgaris (BEAVA); 15 g/Ha) | Herbicidal activity BEAVA (Beta vulgaris (BEAVA); 30 g/Ha) | Herbicidal activity on a 0-100 scale, BRAPL ([3]; 60 g/Ha) | Herbicidal activity on a 0-100 scale, BRAPL ([3]; 125 g/Ha) | Herbicidal activity on a 0-100 scale, BRAPL ([3]; 250 g/Ha) | Herbicidal activity BROTE (Bromus tectorum (BROTE); 500 g/Ha) | Herbicidal activity GLXMA (Glycine max (GLXMA); 15 g/Ha) | Herbicidal activity on a 0-100 scale, GLXMA (Glycine max (GLXMA); 15 g/Ha) | Herbicidal activity LOLPE (Lolium perenne (LOLPE); 30 g/Ha) | Herbicidal activity LOLPE (Lolium perenne (LOLPE); 60 g/Ha) | Herbicidal activity on a 0-100 scale, SORVU (Sorghum bicolour (SORVU); 60 g/Ha) | Herbicidal activity TRZAW ([6]; 500 g/Ha)
0: Herbicidal activity BROTE (Bromus tectorum (BROTE); 15 g/Ha) | Herbicidal activity BROTE (Bromus tectorum (BROTE); 30 g/Ha) | Herbicidal activity on a 0-100 scale, DIGSA ([4]; 15 g/Ha) | Herbicidal activity KCHSC (Kochia scoparia (KSHSC); 15 g/Ha) | Herbicidal activity KCHSC (Kochia scoparia (KSHSC); 30 g/Ha) | Herbicidal activity KCHSC (Kochia scoparia (KSHSC); 60 g/Ha) | Herbicidal activity on a 0-100 scale, SORVU (Sorghum bicolour (SORVU); 15 g/Ha) | Herbicidal activity TRZAW ([6]; 15 g/Ha) | Herbicidal activity TRZAW ([6]; 30 g/Ha)
90: Herbicidal activity ABUTH ([1]; 15 g/Ha) | Herbicidal activity ABUTH ([1]; 30 g/Ha) | Herbicidal activity AMARE ([2]; 30 g/Ha) | Herbicidal activity AMARE ([2]; 60 g/Ha) | Herbicidal activity on a 0-100 scale, BRAPL ([3]; 500 g/Ha) | Herbicidal activity BRSNN (Brassica napus (BRSNN); 30 g/Ha) | Herbicidal activity BRSNN (Brassica napus (BRSNN); 60 g/Ha) | Herbicidal activity BRSNN (Brassica napus (BRSNN); 125 g/Ha) | Herbicidal activity BRSNN (Brassica napus (BRSNN); 250 g/Ha) | Herbicidal activity BRSNN (Brassica napus (BRSNN); 500 g/Ha) | Herbicidal activity on a 0-100 scale, DIGSA ([4]; 250 g/Ha) | Herbicidal activity on a 0-100 scale, DIGSA ([4]; 500 g/Ha) | Herbicidal activity GLXMA (Glycine max (GLXMA); 60 g/Ha) | Herbicidal activity on a 0-100 scale, GLXMA (Glycine max (GLXMA); 60 g/Ha) | Herbicidal activity GLXMA (Glycine max (GLXMA); 125 g/Ha) | Herbicidal activity on a 0-100 scale, GLXMA (Glycine max (GLXMA); 125 g/Ha) | Herbicidal activity LOLPE (Lolium perenne (LOLPE); 125 g/Ha) | Herbicidal activity LOLPE (Lolium perenne (LOLPE); 250 g/Ha) | Herbicidal activity LOLPE (Lolium perenne (LOLPE); 500 g/Ha) | Herbicidal activity POAAN (Poa annua (POAAN); 500 g/Ha) | Herbicidal activity SIDSP (Sida spinosa (SIDSP); 30 g/Ha) | Herbicidal activity SIDSP (Sida spinosa (SIDSP); 60 g/Ha) | Herbicidal activity SINAR (Sinapis arvensis (SINAR); 250 g/Ha) | Herbicidal activity on a 0-100 scale, SORVU (Sorghum bicolour (SORVU); 250 g/Ha)
30: Herbicidal activity AVEFA (Avena fatua (AVEFA); 60 g/Ha) | Herbicidal activity on a 0-100 scale, BRAPL ([3]; 15 g/Ha) | Herbicidal activity POAAN (Poa annua (POAAN); 60 g/Ha) | Herbicidal activity TRZAW ([6]; 125 g/Ha)
10: Herbicidal activity AVEFA (Avena fatua (AVEFA); 15 g/Ha) | Herbicidal activity BROTE (Bromus tectorum (BROTE); 60 g/Ha) | Herbicidal activity KCHSC (Kochia scoparia (KSHSC); 125 g/Ha) | Herbicidal activity KCHSC (Kochia scoparia (KSHSC); 250 g/Ha) | Herbicidal activity LOLPE (Lolium perenne (LOLPE); 15 g/Ha) | Herbicidal activity POAAN (Poa annua (POAAN); 15 g/Ha) | Herbicidal activity on a 0-100 scale, SORVU (Sorghum bicolour (SORVU); 30 g/Ha)
60: Herbicidal activity AVEFA (Avena fatua (AVEFA); 125 g/Ha) | Herbicidal activity on a 0-100 scale, BRAPL ([3]; 30 g/Ha) | Herbicidal activity TRZAW ([6]; 250 g/Ha)
20: Herbicidal activity AVEFA (Avena fatua (AVEFA); 30 g/Ha) | Herbicidal activity BROTE (Bromus tectorum (BROTE); 125 g/Ha) | Herbicidal activity on a 0-100 scale, DIGSA ([4]; 30 g/Ha) | Herbicidal activity KCHSC (Kochia scoparia (KSHSC); 500 g/Ha) | Herbicidal activity POAAN (Poa annua (POAAN); 30 g/Ha) | Herbicidal activity TRZAW ([6]; 60 g/Ha)
100: Herbicidal activity ABUTH ([1]; 60 g/Ha) | Herbicidal activity ABUTH ([1]; 125 g/Ha) | Herbicidal activity ABUTH ([1]; 250 g/Ha) | Herbicidal activity ABUTH ([1]; 500 g/Ha) | Herbicidal activity AMARE ([2]; 125 g/Ha) | Herbicidal activity AMARE ([2]; 250 g/Ha) | Herbicidal activity AMARE ([2]; 500 g/Ha) | Herbicidal activity BEAVA (Beta vulgaris (BEAVA); 500 g/Ha) | Herbicidal activity GLXMA (Glycine max (GLXMA); 250 g/Ha) | Herbicidal activity on a 0-100 scale, GLXMA (Glycine max (GLXMA); 250 g/Ha) | Herbicidal activity GLXMA (Glycine max (GLXMA); 500 g/Ha) | Herbicidal activity on a 0-100 scale, GLXMA (Glycine max (GLXMA); 500 g/Ha) | Herbicidal activity IPOHE ([5]; 30 g/Ha) | Herbicidal activity IPOHE ([5]; 60 g/Ha) | Herbicidal activity IPOHE ([5]; 125 g/Ha) | Herbicidal activity IPOHE ([5]; 250 g/Ha) | Herbicidal activity IPOHE ([5]; 500 g/Ha) | Herbicidal activity SIDSP (Sida spinosa (SIDSP); 125 g/Ha) | Herbicidal activity SIDSP (Sida spinosa (SIDSP); 250 g/Ha) | Herbicidal activity SIDSP (Sida spinosa (SIDSP); 500 g/Ha) | Herbicidal activity SINAR (Sinapis arvensis (SINAR); 500 g/Ha) | Herbicidal activity on a 0-100 scale, SORVU (Sorghum bicolour (SORVU); 500 g/Ha) | Herbicidal activity XANST ([7]; 500 g/Ha)
40: Herbicidal activity BROTE (Bromus tectorum (BROTE); 250 g/Ha) | Herbicidal activity on a 0-100 scale, DIGSA ([4]; 60 g/Ha)

From US20230301300A1, “HERBICIDAL COMPOSITIONS” (SYNGENTA CROP PROTECTION AG, priority 2020, published 2023)
